Source: US7645765B2, “Use of moxaverin for treating erectile dysfunction, forms of dementia or diseases associated to an arteriosclerotic occlusion” (Molecular and Clinical Drug Research, priority 2001, dated 2010)
Values after ≈ are worked out from the molar mass of the structure shown. Where two headings read alike, the source gives them in different places.

Experiments:
[1] = after oral administration; cited from earlier work
[2] = cited from earlier work
[3] = Stability of pH-neutral aqueous PEG solutions of moxaverin; format: physicochemical
[4] = Solubility of moxaverin hydrochloride in undiluted PEG 200 / PEG 400 at 37° C., pH 7.4 adjustment and dilution with Tyrode's solution; format: physicochemical
Description: Moxaverin hydrochloride was dissolved completely, as a pure substance, in increasing mass proportions (see Table 1), in 10 ml commercially available polyethylene glycol having an average molecular weight of 200 and 400, respectively (manufactured by Sigma, PEG 200 and 400, <1% H2O), while stirring constantly, at a temperature of 37° C.
Subsequently, the dissolved moxaverin was converted to an aqueous solution, while stirring constantly, by adding 1×Tyrode's solution with a normal extracellular electrolyte composition.
To determine the pH dependence of the solution behavior of moxaverin hydrochloride, a pH of 7.4 was adjusted in another series of experiments, after complete dissolution in undiluted PEG, by adding NaOH.

[5] = system: smooth muscle cells; details: more effective than papaverin; cited from earlier work
[6] = system: patients having erectile dysfunction; assay: Patient study: intracavernous injection of aqueous solutions of moxaverin; format: in vivo, human
Description: Twenty patients having a completely clarified genesis of erectile dysfunction were given intracavernous injections (injection therapy of erectile tissue) of aqueous solutions of moxaverin. In this connection, 1 ml of an injection solution containing 1 to 10 mg moxaverin hydrochloride per ml end volume, in Tyrode's buffer, at a pH=7.4 and an end concentration of 2.5% PEG 400 (in the case of 1 mg moxaverin HCl/ml) up to 25% PEG 400 (in the case of 10 mg moxaverin HCl/ml) were administered per individual injection.

[7] = Solubility in water / aqueous solution; format: physicochemical
Description: Also, this low concentration of moxaverin would be difficult to compensate by means of the administration of larger volumes. In addition, the stability of active substances in highly concentrated solutions is generally greater than in solutions having a low concentration. In the form of the free base, moxaverin is practically insoluble in water (<1 mg/ml).

[8] = Direct dissolving of moxaverin HCl in 5-10% diluted PEG; format: physicochemical; details: 5-10% PEG 400 or PEG 200 in H2O or Tyrode's solution, 37° C.
Description: In comparison, an attempt was made to dissolve moxaverin HCl in 5-10% PEG diluted with H2O and Tyrode's solution, respectively. (In other words, analogous to the series of experiments shown in the table, 15 to 40 mg moxaverin HCl were added to 10 ml 10% PEG 400, or 7.5 to 20 mg moxaverin HCl were added to 10 ml 5% PEG 400, and stirred at 37° C.) However, directly dissolving the pure substance in diluted PEG was not possible either in diluted PEG 400 or in diluted PEG 200.

[9] = for pH: 26.6° C.
Description: Moxaverin hydrochloride was dissolved completely, as a pure substance, in increasing mass proportions (see Table 1), […], respectively (manufactured by Sigma, PEG 200 and 400, <1% H2O), while stirring constantly, […]

[10] = Activity of moxaverin HCl dissolved in pH-neutral PEG solution; details: pH-neutral diluted PEG solution
[11] = 150 mg in 10 ml PEG 200, 37° C.
[12] = 150 mg in 10 ml PEG 400, 37° C.
[13] = 200 mg in 10 ml PEG 200, 37° C.
[14] = 200 mg in 10 ml PEG 400, 37° C.
[15] = 250 mg in 10 ml PEG 200, 37° C.
[16] = 250 mg in 10 ml PEG 400, 37° C.
[17] = 300 mg in 10 ml PEG 200, 37° C.
[18] = 300 mg in 10 ml PEG 400, 37° C.
[19] = 350 mg in 10 ml PEG 200, 37° C.
[20] = 350 mg in 10 ml PEG 400, 37° C.
[21] = 400 mg in 10 ml PEG 200, 37° C.
[22] = 400 mg in 10 ml PEG 400, 37° C.

In the case of `CCc1cc2cc(OC)c(OC)cc2c(Cc2ccccc2)n1` [moxaverin, 1-benzyl-3-ethyl-6,7-dimethoxyisoquinoline], the “toxicity relative to papaverin” value [1] is given as “ten times less toxic”, the solubility in water ([2]; free base, water) is given as under 1 mg/mL and the “time the solutions remained stable without precipitation” value [3] is given as “more than six months”. For the same compound, the “Solubility at pH 7.4” value [4, 11] was “Yes”, the pH [4, 11] was 3.05 and the “Solubility at pH 7.4” value [4, 12] was “Yes”. For the same compound, the pH [4, 12] was 2.53, the “Solubility at pH 7.4” value [4, 13] was “Yes” and the pH [4, 13] was 3.06. For the same compound, the “Solubility at pH 7.4” value [4, 14] was “Yes”, the pH [4, 14] was 2.33 and the “Solubility at pH 7.4” value [4, 15] was “Yes”. The pH [4, 15] was 2.97, the “Solubility at pH 7.4” value [4, 16] was “Yes” and the pH [4, 16] was 2.27. For the same compound, the “Solubility at pH 7.4” value [4, 17] was “Yes”, the pH [4, 17] was 2.95 and the “Solubility at pH 7.4” value [4, 18] was “Yes”. The pH [4, 18] was 2.30, the “Solubility at pH 7.4” value [4, 19] was “No” and the pH [4, 19] was 2.87. For the same compound, the “Solubility at pH 7.4” value [4, 20] was “Yes”, the pH [4, 20] was 2.22 and the “Solubility at pH 7.4” value [4, 21] was “No”. For the same compound, the pH [4, 21] was 2.75, the “Solubility at pH 7.4” value [4, 22] was “Yes” and the pH [4, 22] was 2.12. The “solution behaviour after pH neutralization” value ([4]; PEG 400, high concentrations, pH 7.4) was “remained in solution”, the “maximum moxaverin concentration in the finished aqueous medicinal solution” value ([4]; PEG as solubilizer, upper limit 30% PEG) was “approximately 12 mg/ml” and the “behaviour on dilution with 1×Tyrode's solution” value ([4]; dissolved in PEG, diluted as desired) was “without the dissolved moxaverin precipitating”. For the same compound, the “precipitation on dilution of pH-neutral solutions” value ([4]; low PEG concentrations of 5% and less) was “did not precipitate”, the Solubility ([4]; undiluted polyethylene glycol (PEG), 37 °C, organic solvent or mixture, thermodynamic from solid, undiluted PEG, read-out: maximum solubility in undiluted PEG) was about 40 mg/mL (≈ 130 mM) and the “effectiveness as musculotropic spasmolytic relative to parent substance papaverin” value [5] was 2.5 ×. The “pain in connection with the injection” value ([6]; intracavernous injection) was “No pain was observed”, the “side effects such as priapism” value ([6]; intracavernous injection) was “not observed” and the “cases with sufficiently strong penile erection” value ([6]; intracavernous, 1 to 10 mg moxaverin hydrochloride in 1 ml, 20 patients) was “more than 90%”. For the same compound, the “degree of erection E” value ([6]; scale from 0 to 5, intracavernous injection) was 4-5.

For `CCc1cc2cc(OC)c(OC)cc2c(Cc2ccccc2)n1.Cl` [moxaverin hydrochloride], the “maximum brought into solution in H2O” value [7] is listed as under 1 mg/mL, the “maximum concentration of moxaverin HCl in aqueous solution” value ([2]; aqueous solutions having a physiological pH) is listed as at most 1 mg/mL and the “directly dissolving the pure substance in diluted PEG” value [8] is listed as “not possible”. The Solubility [9] was “Dissolved”, the “maximum brought into solution in EtOH” value [9] was at most 200 mg/mL and the pH ([9]; 10 mg/ml in ethanol 90%) was 3.49. For the same compound, the pH ([9]; 20 mg/ml in ethanol 90%) was 3.36, the pH ([9]; 30 mg/ml in ethanol 90%) was 3.30 and the pH ([9]; 40 mg/ml in ethanol 90%) was 3.19. It also gave a pH ([9]; 50 mg/ml in ethanol 90%) of 3.13, a pH ([9]; 60 mg/ml in ethanol 90%) of 3.11 and a pH ([9]; 100 mg/ml in ethanol 90%) of 3.00. The pH ([9]; 200 mg/ml in ethanol 90%) was 2.96, the “activity of the dissolved moxaverin HCl” value [10] was “active” and the “concentration at which moxaverin HCl precipitated after neutralization” value ([4]; PEG 200, pH 7.4) was at least 35000 µg/mL. The “moxaverin concentration achieved in undiluted polyethylene glycol 400” value ([4]; undiluted PEG 400, 37° C.) was “up to 40 mg/ml”.
